According to patent US8822502B2, “Insecticidal compounds” (Syngenta Crop Protection LLC, priority 2008, dated 2014):

Legend:
Type in all cases: in vivo
Plutella xylostella = Plutella xylostella artificial diet test; conditions: 144 h, application rate 200 ppm (concentration in well 18 ppm), L2 larvae, 6 days, larval mortality, growth regulation
Protocol: Plutella Xylostella (Diamond Back Moth):
24-well microtiter plate (MTP) with artificial diet was treated with test solutions at an application rate of 200 ppm (concentration in well 18 ppm) by pipetting. After drying, the MTP's were infested with L2 larvae (7-12 per well). After an incubation period of 6 days, samples were checked for larval mortality and growth regulation.

Heliothis virescens = Heliothis virescens egg / artificial diet test; conditions: 96 h, application rate 200 ppm (concentration in well 18 ppm), eggs 0-24 h old on artificial diet, 4 days, egg mortality, larval mortality, growth regulation
Protocol: Heliothis Virescens (Tobacco Budworm):
Eggs (0-24 h old) were placed in 24-well microtiter plate on artificial diet and treated with test solutions at an application rate of 200 ppm (concentration in well 18 ppm) by pipetting. After an incubation period of 4 days, samples were checked for egg mortality, larval mortality, and growth regulation.

Spodoptera littoralis = Spodoptera littoralis cotton leaf disc spray test; conditions: foliar, 72 h, application rate 200 ppm, sprayed cotton leaf discs, L1 larvae, 3 days after treatment, mortality, feeding behavior, growth regulation
Excerpt: Spodoptera Littoralis (Egyptian Cotton Leafworm):
Cotton leaf discs were placed on agar in a 24-well microtiter plate and sprayed with test solutions at an application rate of 200 ppm. After drying, the leaf discs were infested with 5 L1 larvae. The samples were checked for mortality, feeding behavior, and growth regulation 3 days after treatment (DAT).

Tetranychus urticae = Tetranychus urticae bean leaf disc spray test; conditions: foliar, 192 h, application rate 200 ppm, sprayed bean leaf discs, mite populations of mixed ages, 8 days, egg, larval and adult mortality
Excerpt: Tetranychus Urticae (Two-Spotted Spider Mite):
Bean leaf discs on agar in 24-well microtiter plates were sprayed with test solutions at an application rate of 200 ppm. After drying, the leaf discs are infested with mite populations of mixed ages. 8 days later, discs are checked for egg mortality, larval mortality, and adult mortality.

Thrips tabaci = Thrips tabaci sunflower leaf disc spray test; conditions: foliar, 168 h, application rate 200 ppm, sprayed sunflower leaf discs, population of mixed ages, 7 days, mortality
Protocol: Thrips Tabaci (Onion Thrips):
Sunflower leaf discs were placed on agar in a 24-well microtiter plate and sprayed with test solutions at an application rate of 200 ppm. […] After an incubation period of 7 days, samples were checked for mortality.

Diabrotica balteata = Diabrotica balteata artificial diet test; conditions: 120 h, application rate 200 ppm (concentration in well 18 ppm), L2 larvae, 5 days, larval mortality, growth regulation
Protocol: Diabrotica Balteata (Corn Root Worm):
A 24-well microtiter plate (MTP) with artificial diet was treated with test solutions at an application rate of 200 ppm (concentration in well 18 ppm) by pipetting. After drying, the MTP's were infested with L2 larvae (6-10 per well). After an incubation period of 5 days, samples were checked for larval mortality and growth regulation.

Measured: pest or weed control at 200 ppm

Cc1cc(C2=NOC(c3cc(Cl)cc(Cl)c3)(C(F)(F)F)C2Cl)ccc1C(=O)Nc1cccc(F)c1 (centres unmarked) [B14]
≥ 80%: Plutella xylostella | Heliothis virescens | Spodoptera littoralis

Cc1cc(C2=NOC(c3cc(Cl)cc(Cl)c3)(C(F)(F)F)C2Cl)ccc1C(=O)NCc1ccccc1 (centres unmarked) [B8]
≥ 80%: all assays above

CCCCNC(=O)c1ccc(C2=NOC(c3cc(Cl)cc(Cl)c3)(C(F)(F)F)C2S(C)(=O)=O)cc1C (centres unmarked) [D2, N-butyl-4-[5-(3,5-dichloro-phenyl)-4-methylsulfonyl-5-trifluoromethyl-4,5-dihydro-isoxazol-3-yl]-2-methyl-benzamide]
≥ 80%: Plutella xylostella | Spodoptera littoralis

Cc1cc(C2=NOC(c3cc(Cl)cc(Cl)c3)(C(F)(F)F)C2Cl)ccc1C(=O)NC1CSC1 (centres unmarked) [B21]
≥ 80%: all assays above

Cc1cc(C2=NOC(c3cc(Cl)cc(Cl)c3)(C(F)(F)F)C2(F)F)ccc1C(=O)NCc1ccccn1 (centres unmarked) [C1, 4-[5-(3,5-dichloro-phenyl)-4,4-difluoro-5-trifluoromethyl-4,5-dihydro-isoxazol-3-yl]-2-methyl-N-pyridin-2-ylmethyl-benzamide]
not listed: Thrips tabaci
≥ 80%: all other assays above

CCC(C)NC(=O)c1ccc(C2=NOC(c3cc(Cl)cc(Cl)c3)(C(F)(F)F)C2Br)c2ccccc12 (centres unmarked) [F6]
not listed: Tetranychus urticae
≥ 80%: all other assays above

CCC(C)NC(=O)c1ccc(C2=NOC(c3cc(Cl)cc(Cl)c3)(C(F)(F)F)C2Cl)cc1C (centres unmarked) [B6]
≥ 80%: all assays above

O=C(NC1CSC1)c1ccc(C2=NOC(c3cc(Cl)cc(Cl)c3)(C(F)(F)F)C2Br)c2ccccc12 (centres unmarked) [F21]
≥ 80%: all assays above

Cc1cc(C2=NOC(c3cc(Cl)cc(Cl)c3)(C(F)(F)F)C2Br)ccc1C(=O)NC1C[S+]([O-])C1 (single isomer, unassigned) [A25, 4-[4-bromo-5-(3,5-dichloro-phenyl)-5-trifluoromethyl-4,5-dihydro-isoxazol-3-yl]-2-methyl-N-(1-oxo-thietan-3-yl)-benzamide]
≥ 80%: Diabrotica balteata

Cc1cc(C2=NOC(c3cc(Cl)cc(Cl)c3)(C(F)(F)F)C2Br)ccc1C(=O)Nc1cccc(F)c1 (centres unmarked) [A15]
≥ 80%: all assays above

CCCCNC(=O)c1ccc(C2=NOC(c3cc(Cl)cc(Cl)c3)(C(F)(F)F)C2Cl)cc1C (centres unmarked) [B1]
≥ 80%: all assays above

CCCCNC(=O)c1ccc(C2=NOC(c3cc(Cl)cc(Cl)c3)(C(F)(F)F)C2Br)c2ccccc12 (centres unmarked) [F3]
≥ 80%: Plutella xylostella | Heliothis virescens | Spodoptera littoralis | Thrips tabaci

CSC1C(c2ccc(C(=O)NC3CSC3)c(C)c2)=NOC1(c1cc(Cl)cc(Cl)c1)C(F)(F)F (centres unmarked) [D3, 4-[5-(3,5-dichloro-phenyl)-4-methylsulfanyl-5-trifluoromethyl-4,5-dihydro-isoxazol-3-yl]-2-methyl-N-thietan-3-yl-benzamide]
not listed: Thrips tabaci
≥ 80%: all other assays above

CCCCNC(=O)c1ccc(C2=NOC(c3cc(Cl)cc(Cl)c3)(C(F)(F)F)C2SC)cc1C (centres unmarked) [D1, N-butyl-4-[5-(3,5-dichloro-phenyl)-4-methylsulfanyl-5-trifluoromethyl-4,5-dihydro-isoxazol-3-yl]-2-methyl-benzamide]
≥ 80%: Plutella xylostella | Heliothis virescens | Spodoptera littoralis | Diabrotica balteata

O=C(Nc1cccc(F)c1)c1ccc(C2=NOC(c3cc(Cl)cc(Cl)c3)(C(F)(F)F)C2Br)c2ccccc12 (centres unmarked) [F14]
not listed: Tetranychus urticae
≥ 80%: all other assays above

CCCCNC(=O)c1ccc(C2=NOC(c3cc(Cl)cc(Cl)c3)(C(F)(F)F)C2Br)cc1C (centres unmarked) [A1, 4-[4-bromo-5-(3,5-dichloro-phenyl)-5-trifluoromethyl-4,5-dihydro-isoxazol-3-yl]-N-butyl-2-methyl-benzamide]
not listed: Thrips tabaci
≥ 80%: all other assays above

O=C(NCc1ccccc1)c1ccc(C2=NOC(c3cc(Cl)cc(Cl)c3)(C(F)(F)F)C2Br)c2ccccc12 (centres unmarked) [F8]
not listed: Tetranychus urticae
≥ 80%: all other assays above

Cc1cc(C2=NOC(c3cc(Cl)cc(Cl)c3)(C(F)(F)F)C2S(C)(=O)=O)ccc1C(=O)NC1CSC1 (centres unmarked) [D4, 4-[5-(3,5-dichloro-phenyl)-4-methylsulfonyl-5-trifluoromethyl-4,5-dihydro-isoxazol-3-yl]-2-methyl-N-thietan-3-yl-benzamide]
≥ 80%: Heliothis virescens | Tetranychus urticae

Cc1cc(C2=NOC(c3cc(Cl)cc(Cl)c3)(C(F)(F)F)C2Cl)ccc1C(=O)NC1CCC1 (centres unmarked) [B23]
≥ 80%: all assays above

Cc1cc(C2=NOC(c3cc(Cl)cc(Cl)c3)(C(F)(F)F)C2C)ccc1C(=O)NC1CSC1 (centres unmarked) [E2, 4-[5-(3,5-dichloro-phenyl)-4-methyl-5-trifluoromethyl-4,5-dihydro-isoxazol-3-yl]-2-methyl-N-thietan-3-yl-benzamide]
≥ 80%: all assays above

CCNC(=O)c1ccc(C2=NOC(c3cc(Cl)cc(Cl)c3)(C(F)(F)F)C2Br)c2ccccc12 (centres unmarked) [F2]
≥ 80%: Diabrotica balteata
